The values below come from US20250367166A1, “NEXT GENERATION DIPROVOCIMS THAT ACTIVATE THE INNATE AND ADAPTIVE IMMUNE RESPONSE” (The Scripps Research Institute, priority 2022, published 2025).

Usually EC50 stands for the concentration giving half of the maximal effect.

The target in experiment [1] is TLR1/TLR2 (Homo sapiens, UniProt O60603+Q15399). Kind of experiment: TNF-α release from PMA-differentiated human THP-1 cells (ELISA).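 On all read-outs here: cells exposed to graded compound concentrations for 4 h, TNF-α quantified in supernatant, LPS as positive and DMSO as negative control, values are duplicate means.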 The note with it: for Emax: THP-1, 4 h, read-out: Efficacy (magnitude) of response versus diprovocim-1 (100%), THP-1. A general note: In an ELISA, binding on a coated surface is turned into a signal by an enzyme label.
Experiment [2] has as its target TLR1/TLR2 (Mus musculus, UniProt Q9EPQ1+Q9QUN7). Kind of experiment: TNF-α release from thioglycolate-elicited mouse peritoneal macrophages (ELISA). The note with it: for Emax: 4 h, read-out: Efficacy (magnitude) of response versus diprovocim-1 (100%), mouse macrophages.
Procedure: Thioglycolate-elicited macrophages were recovered 4 days after i.p. injection of 2 mL BBL thioglycolate medium, brewer modified (4%; BD Biosciences) by peritoneal lavage with 5 mL phosphate buffered saline (PBS). […] Cells were seeded onto 96-well plates at 1×10^3 cells per well and treated with systematically varied concentrations of the candidate compounds (dissolved in DMSO, and final assay DMSO concentrations (0.5%) were kept constant in all experiments) for 4 h. Ultra-pure LPS (dissolved in H2O, Enzo Life Sciences) was assessed alongside the compounds as a positive control and DMSO treated controls. […] Mouse TNF-α in the supernatants was measured by ELISA kits according to the manufacturer's instructions (eBioscience). EC50's were calculated by Graphpad Prism. All data is mean of duplicates and SD is within ±10% of mean. Mouse cells were from wild type C57BL/6J mice.
[3] abbreviates: read-out: EC50 (nM) (THP-1): EC50 TNF-α release from human THP-1 cells, Table 1.
Where [4] appears, read: read-out: EC50 (nM) (mouse): EC50 TNF-α release from mouse macrophages, Table 1.
[5] abbreviates: read-out: EC50 (nM) (THP-1): EC50 TNF-α release from human THP-1 cells, Table 5.
[6] abbreviates: read-out: EC50 (nM) (mouse): EC50 TNF-α release from mouse macrophages, Table 5.
[7] abbreviates: read-out: EC50 (nM) (THP-1): EC50 TNF-α release from human THP-1 cells, Table 3.
Where [8] appears, read: read-out: EC50 (nM) (mouse): EC50 TNF-α release from mouse macrophages, Table 3.

Where two headings read alike, the source gives them in different places.

Chain of TLR1/TLR2 (Mus musculus, UniProt Q9EPQ1+Q9QUN7) (Q9EPQ1 26-795): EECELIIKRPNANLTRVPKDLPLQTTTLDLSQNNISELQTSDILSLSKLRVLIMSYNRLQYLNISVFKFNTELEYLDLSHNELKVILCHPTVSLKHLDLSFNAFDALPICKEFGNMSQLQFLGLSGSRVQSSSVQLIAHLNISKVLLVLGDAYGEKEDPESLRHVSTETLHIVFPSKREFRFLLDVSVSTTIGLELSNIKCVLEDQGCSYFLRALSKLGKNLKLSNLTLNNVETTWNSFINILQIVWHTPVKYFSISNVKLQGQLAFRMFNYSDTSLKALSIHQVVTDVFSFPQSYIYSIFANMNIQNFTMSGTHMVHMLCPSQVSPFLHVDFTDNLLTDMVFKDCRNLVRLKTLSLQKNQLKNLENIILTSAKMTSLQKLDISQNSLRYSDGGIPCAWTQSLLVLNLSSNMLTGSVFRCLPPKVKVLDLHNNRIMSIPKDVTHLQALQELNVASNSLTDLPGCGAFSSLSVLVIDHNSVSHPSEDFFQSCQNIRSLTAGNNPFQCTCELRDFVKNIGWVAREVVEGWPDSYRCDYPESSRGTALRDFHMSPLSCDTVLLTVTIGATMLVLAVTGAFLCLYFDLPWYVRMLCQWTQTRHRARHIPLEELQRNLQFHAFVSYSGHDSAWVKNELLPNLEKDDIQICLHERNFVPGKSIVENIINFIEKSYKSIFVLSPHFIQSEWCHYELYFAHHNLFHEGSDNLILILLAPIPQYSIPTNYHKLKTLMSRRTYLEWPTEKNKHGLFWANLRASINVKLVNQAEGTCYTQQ
Chain of TLR1/TLR2 (Mus musculus, UniProt Q9EPQ1+Q9QUN7) (Q9QUN7 25-784): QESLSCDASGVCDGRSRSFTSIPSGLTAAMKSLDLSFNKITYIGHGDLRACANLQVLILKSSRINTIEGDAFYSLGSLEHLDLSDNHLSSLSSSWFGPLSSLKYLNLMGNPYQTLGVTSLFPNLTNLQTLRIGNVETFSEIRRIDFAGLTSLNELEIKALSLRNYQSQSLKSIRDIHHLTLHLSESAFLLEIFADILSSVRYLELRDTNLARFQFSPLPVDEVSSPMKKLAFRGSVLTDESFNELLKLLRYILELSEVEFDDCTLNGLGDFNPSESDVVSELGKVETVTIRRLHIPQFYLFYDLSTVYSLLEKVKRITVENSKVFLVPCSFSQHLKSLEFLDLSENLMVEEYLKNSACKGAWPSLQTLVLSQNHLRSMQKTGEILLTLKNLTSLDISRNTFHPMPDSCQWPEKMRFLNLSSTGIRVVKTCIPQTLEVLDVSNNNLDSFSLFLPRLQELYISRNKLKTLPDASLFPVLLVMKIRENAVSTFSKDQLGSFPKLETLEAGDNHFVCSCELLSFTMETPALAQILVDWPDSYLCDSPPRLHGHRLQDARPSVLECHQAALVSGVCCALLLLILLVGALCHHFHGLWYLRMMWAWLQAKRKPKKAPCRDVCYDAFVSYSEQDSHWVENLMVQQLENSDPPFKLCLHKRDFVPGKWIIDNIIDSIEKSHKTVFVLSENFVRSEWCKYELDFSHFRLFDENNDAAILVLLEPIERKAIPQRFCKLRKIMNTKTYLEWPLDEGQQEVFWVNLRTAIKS
Chain of TLR1/TLR2 (Homo sapiens, UniProt O60603+Q15399) (Q15399 25-786): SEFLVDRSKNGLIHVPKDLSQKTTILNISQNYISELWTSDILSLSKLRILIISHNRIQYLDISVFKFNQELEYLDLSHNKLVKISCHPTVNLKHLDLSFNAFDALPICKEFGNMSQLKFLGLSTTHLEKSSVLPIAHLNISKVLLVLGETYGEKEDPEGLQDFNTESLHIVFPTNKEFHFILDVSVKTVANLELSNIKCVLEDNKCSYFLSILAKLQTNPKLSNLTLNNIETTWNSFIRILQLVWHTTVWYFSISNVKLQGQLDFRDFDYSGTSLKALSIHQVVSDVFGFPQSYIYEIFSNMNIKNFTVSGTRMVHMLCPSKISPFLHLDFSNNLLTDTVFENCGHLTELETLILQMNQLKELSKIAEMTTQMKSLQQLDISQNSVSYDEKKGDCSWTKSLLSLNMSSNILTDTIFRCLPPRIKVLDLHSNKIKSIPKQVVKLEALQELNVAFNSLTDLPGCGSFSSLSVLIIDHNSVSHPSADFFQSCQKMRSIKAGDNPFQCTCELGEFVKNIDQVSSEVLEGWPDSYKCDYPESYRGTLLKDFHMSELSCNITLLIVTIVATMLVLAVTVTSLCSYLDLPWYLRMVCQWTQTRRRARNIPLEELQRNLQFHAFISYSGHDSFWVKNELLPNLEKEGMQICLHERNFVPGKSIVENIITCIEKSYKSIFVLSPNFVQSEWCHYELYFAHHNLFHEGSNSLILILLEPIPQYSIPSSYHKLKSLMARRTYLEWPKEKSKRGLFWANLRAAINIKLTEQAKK
Chain of TLR1/TLR2 (Homo sapiens, UniProt O60603+Q15399) (O60603 21-784): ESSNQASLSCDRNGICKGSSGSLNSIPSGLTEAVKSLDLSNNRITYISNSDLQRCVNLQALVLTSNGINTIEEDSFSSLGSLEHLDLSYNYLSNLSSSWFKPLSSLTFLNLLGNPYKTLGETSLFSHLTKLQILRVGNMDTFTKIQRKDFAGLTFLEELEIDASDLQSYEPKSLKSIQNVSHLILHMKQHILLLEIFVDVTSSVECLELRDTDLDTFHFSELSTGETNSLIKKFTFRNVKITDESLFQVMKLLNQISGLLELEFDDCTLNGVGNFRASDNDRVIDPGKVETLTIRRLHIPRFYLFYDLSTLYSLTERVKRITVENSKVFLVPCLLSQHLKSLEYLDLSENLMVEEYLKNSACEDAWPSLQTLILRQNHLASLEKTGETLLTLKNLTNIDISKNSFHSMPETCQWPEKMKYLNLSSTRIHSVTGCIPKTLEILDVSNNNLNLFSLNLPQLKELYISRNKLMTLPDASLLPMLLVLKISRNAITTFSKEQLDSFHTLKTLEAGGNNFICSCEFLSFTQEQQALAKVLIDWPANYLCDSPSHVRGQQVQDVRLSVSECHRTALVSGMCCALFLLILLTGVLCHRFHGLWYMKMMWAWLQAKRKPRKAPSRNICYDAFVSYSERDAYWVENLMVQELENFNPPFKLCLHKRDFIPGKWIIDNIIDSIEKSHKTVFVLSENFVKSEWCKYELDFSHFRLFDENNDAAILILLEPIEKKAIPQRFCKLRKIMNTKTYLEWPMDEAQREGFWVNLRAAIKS

On to `O=C(O)c1ccc(C(=O)NCCOCCCCCCCCCCCCNC(=O)[C@@H]2CN(C(=O)c3ccc(C(=O)N4C[C@@H](C(=O)N[C@H]5C[C@@H]5c5ccccc5)[C@H](C(=O)N[C@H]5C[C@@H]5c5ccccc5)C4)cc3)C[C@H]2C(=O)N[C@H]2C[C@@H]2c2ccccc2)cc1` [Compound 86, 4-((2-((12-((3S,4S)-1-(4-((3S,4S)-3,4-Bis(((1S,2R)-2-phenylcyclopropyl)carbamoyl)pyrrolidine-1-carbonyl)benzoyl)-4-(((1S,2R)-2-phenylcyclopropyl)-carbamoyl)pyrrolidine-3-carboxamido)dodecyl)-oxy)ethyl)carbamoyl)benzoic acid], for which the Emax at TLR1/TLR2 [1] turned out to be 100%; on TLR1/TLR2 [2], 50%. Moreover, the EC50 at TLR1/TLR2 [1] (read-out: EC50 (nM) (THP-1): EC50 TNF-α release from human THP-1 cells, Table 6) was determined as 2.9 nM; at TLR1/TLR2 [2] (read-out: EC50 (nM) (mouse): EC50 TNF-α release from mouse macrophages, Table 6), 49 nM.

With `O=C(NCc1ccc(F)cc1)[C@@H]1CN(C(=O)c2ccc(C(=O)N3C[C@@H](C(=O)N[C@H]4C[C@@H]4c4ccccc4)[C@H](C(=O)N[C@H]4C[C@@H]4c4ccccc4)C3)cc2)C[C@H]1C(=O)N[C@H]1C[C@@H]1c1ccccc1` [Compound 24, (3S,4S)-1-(4-((3S,4S)-3,4-Bis(((1S,2R)-2-phenylcyclo-propyl)carbamoyl)pyrrolidine-1-carbonyl)-benzoyl)-N^3-(4-fluorobenzyl)-N^4-((1S,2R)-2-phenylcyclopropyl)-pyrrolidine-3,4-dicarboxamide], the EC50 is 2 nM at TLR1/TLR2 [1] (setting [3]) and 30 nM at TLR1/TLR2 [2] (setting [4]).

For the molecule `C[C@H](NC(=O)OC(C)(C)C)C(=O)OCCCCCCCCCCCCNC(=O)[C@@H]1CN(C(=O)c2ccc(C(=O)N3C[C@@H](C(=O)N[C@H]4C[C@@H]4c4ccccc4)[C@H](C(=O)N[C@H]4C[C@@H]4c4ccccc4)C3)cc2)C[C@H]1C(=O)N[C@H]1C[C@@H]1c1ccccc1` [Compound 57, (S)-12-((3S,4S)-1-(4-((3S,4S)-3,4-Bis(((1S,2R)-2-phenylcyclopropyl)carbamoyl)pyrrolidine-1-carbonyl)-benzoyl)-4-(((1S,2R)-2-phenylcyclopropyl)carbamoyl)-pyrrolidine-3-carboxamido)-dodecyl 2-((tert-butoxycarbonyl)amino)propanoate], the Emax worked out at 80% at TLR1/TLR2 [1] and 200% at TLR1/TLR2 [2]. Further, the EC50 was 0.25 nM on TLR1/TLR2 [1] (setting [5]) and 0.67 nM on TLR1/TLR2 [2] (setting [6]).

For `O=C(CO)OCCCCCCCCCCCCNC(=O)[C@@H]1CN(C(=O)c2ccc(C(=O)N3C[C@@H](C(=O)N[C@H]4C[C@@H]4c4ccccc4)[C@H](C(=O)N[C@H]4C[C@@H]4c4ccccc4)C3)cc2)C[C@H]1C(=O)N[C@H]1C[C@@H]1c1ccccc1` [Compound 45, 12-((3S,4S)-1-(4-((3S,4S)-3,4-Bis(((1S,2R)-2-phenylcyclopropyl)carbamoyl)pyrrolidine-1-carbonyl)benzoyl)-4-(((1S,2R)-2-phenylcyclo-propyl)carbamoyl)pyrrolidine-3-carboxamido)dodecyl 2-hydroxyacetate], the EC50 at TLR1/TLR2 [1] is 0.05 to 0.2 nM; on TLR1/TLR2 [1] (setting [7]), 0.2 nM; on TLR1/TLR2 [2] it was 0.7 to 5 nM; at TLR1/TLR2 [2] (setting [8]), 0.7 nM. Also, the Emax stood at 100% on TLR1/TLR2 [1] and 140% at TLR1/TLR2 [2].

In the case of `Cc1ccc(S(=O)(=O)n2cnc(C[C@H](NC(=O)OC(C)(C)C)C(=O)OCCCCCCCCCCCCNC(=O)[C@@H]3CN(C(=O)c4ccc(C(=O)N5C[C@@H](C(=O)N[C@H]6C[C@@H]6c6ccccc6)[C@H](C(=O)N[C@H]6C[C@@H]6c6ccccc6)C5)cc4)C[C@H]3C(=O)N[C@H]3C[C@@H]3c3ccccc3)c2)cc1` [Compound 68, (S)-12-((3S,4S)-1-(4-((3S,4S)-3,4-Bis(((1S,2R)-2-phenylcyclopropyl)carbamoyl)pyrrolidine-1-carbonyl)benzoyl)-4-(((1S,2R)-2-phenylcyclopropyl)carbamoyl)pyrrolidine-3-carboxamido)-dodecyl 2-((tert-butoxy-carbonyl)amino)-3-(1-tosyl-1H-imidazol-4-yl)propanoate], the Emax on TLR1/TLR2 [1] was 90%; at TLR1/TLR2 [2], 110%. Further, the EC50 on TLR1/TLR2 [1] (setting [5]) amounted to 17 nM; on TLR1/TLR2 [2] (setting [6]) it was 35 nM.

For the molecule `CC(C)(C)OCC(=O)OCCCCCCCCCCCCNC(=O)[C@@H]1CN(C(=O)c2ccc(C(=O)N3C[C@@H](C(=O)N[C@H]4C[C@@H]4c4ccccc4)[C@H](C(=O)N[C@H]4C[C@@H]4c4ccccc4)C3)cc2)C[C@H]1C(=O)N[C@H]1C[C@@H]1c1ccccc1` [Compound 47, 12-((3S,4S)-1-(4-((3S,4S)-3,4-Bis(((1S,2R)-2-phenylcyclopropyl)carbamoyl)pyrrolidine-1-carbonyl)benzoyl)-4-(((1S,2R)-2-phenylcyclopropyl)-carbamoyl)pyrrolidine-3-carboxamido)dodecyl 2-(tert-butoxy)acetate], the Emax on TLR1/TLR2 [1] was determined as 100%; at TLR1/TLR2 [2] it was 230%. Moreover, the half-maximal effective concentration (EC50) on TLR1/TLR2 [1] (setting [7]) came to 0.65 nM; on TLR1/TLR2 [2] (setting [8]), 5 nM.

Consider `CC(C)[C@H](NC(=O)OC(C)(C)C)C(=O)OCCCCCCCCCCCCNC(=O)[C@@H]1CN(C(=O)c2ccc(C(=O)N3C[C@@H](C(=O)N[C@H]4C[C@@H]4c4ccccc4)[C@H](C(=O)N[C@H]4C[C@@H]4c4ccccc4)C3)cc2)C[C@H]1C(=O)N[C@H]1C[C@@H]1c1ccccc1` [Compound 59, (S)-12-((3S,4S)-1-(4-((3S,4S)-3,4-Bis(((1S,2R)-2-phenylcyclopropyl)carbamoyl)pyrrolidine-1-carbonyl)-benzoyl)-4-(((1S,2R)-2-phenylcyclopropyl)carbamoyl)-pyrrolidine-3-carboxamido)-dodecyl 2-((tert-butoxycarbonyl)amino)-3-methylbutanoate], for which the Emax on TLR1/TLR2 [1] amounted to 100%; on TLR1/TLR2 [2], 180%. In addition, the EC50 at TLR1/TLR2 [1] (setting [5]) stood at 1.8 nM; at TLR1/TLR2 [2] (setting [6]), 19 nM.

Consider `O=C(CNC(=O)OCC1c2ccccc2-c2ccccc21)OCCCCCCCCCCCCNC(=O)[C@@H]1CN(C(=O)c2ccc(C(=O)N3C[C@@H](C(=O)N[C@H]4C[C@@H]4c4ccccc4)[C@H](C(=O)N[C@H]4C[C@@H]4c4ccccc4)C3)cc2)C[C@H]1C(=O)N[C@H]1C[C@@H]1c1ccccc1` [Compound 38, 12-((3S,4S)-1-(4-((3S,4S)-3,4-Bis(((1S,2R)-2-phenyl-cyclopropyl)carbamoyl)pyrrolidine-1-carbonyl)benzoyl)-4-(((1S,2R)-2-phenylcyclopropyl)carbamoyl)pyrrolidine-3-carboxamido)-dodecyl 2-((((9H-fluoren-9-yl)methoxy)carbonyl)amino)acetate], for which the Emax worked out at 100% on TLR1/TLR2 [1] and 170% at TLR1/TLR2 [2]. Moreover, the figures for the EC50 at TLR1/TLR2 [1] (setting [7]) and at TLR1/TLR2 [2] (setting [8]) were 56 nM and 375 nM, respectively.

For `CC(C)(C)OC(=O)NCC(=O)NCCCCCCCCCCCCNC(=O)[C@@H]1CN(C(=O)c2ccc(C(=O)N3C[C@@H](C(=O)N[C@H]4C[C@@H]4c4ccccc4)[C@H](C(=O)N[C@H]4C[C@@H]4c4ccccc4)C3)cc2)C[C@H]1C(=O)N[C@H]1C[C@@H]1c1ccccc1` [Compound 18, tert-Butyl (2-((12-((3S,4S)-1-(4-((3S,4S)-3,4-bis-(((1S,2R)-2-phenylcyclopropyl)carbamoyl)pyrrolidine-1-carbonyl)-benzoyl)-4-(((1S,2R)-2-phenyl-cyclopropyl)-carbamoyl)pyrrolidine-3-carboxamido)-dodecyl)amino)-2-oxoethyl)carbamate], the Emax on TLR1/TLR2 [1] and at TLR1/TLR2 [2] was 90% each time. The EC50 at TLR1/TLR2 [1] (setting [3]) is 0.33 nM; at TLR1/TLR2 [2] (setting [4]) it was 170 nM.
